Patent US20160376659A1, “Breast Cancer Biomarker” (The University of Manchester, priority 2015, published 2016)

Experiments:
[1] = test system: MCF-7, T47D and ZR-75-1 cells; test: BCSC activity (MFE, ALDH-positive cells) of pre-treated ER+ cell lines; assay type: cell-based, human; details: for ALDH-positive cells / mammosphere-forming activity: 6 days in vitro pre-treatment, 10^−6 M tamoxifen, 10^−7 M fulvestrant
Experimental: Single cell suspensions of freshly isolated ER+ primary and metastatic patient-derived samples were cultured for 7-9 days (primary cells) in mammosphere colony assays in the presence of ethanol, 10^−6 M 4-hydroxy-tamoxifen or 10^−7 M fulvestrant. Primary mammospheres were dissociated and replated in secondary mammosphere suspension culture for a further 7-9 days to measure self-renewal. Patient-derived xenograft cells were cultured for 7-10 days. For cell lines, cells were pre-treated in adherence and then cultured for 5 days in mammosphere culture. Mammosphere formation efficiency (MFE) was calculated by dividing the number of mammospheres formed (≧50 μm) by the original number of single cells seeded (500 cells/cm^2 for primary cells and 200 cells/cm^2 for cell lines) and is expressed as fold change normalised to control or as the mean percentage of MFE (Shaw et al., 2012).
Dissociated single cells were suspended in Aldefluor assay buffer containing an ALDH substrate, bodipyaminoacetaldehyde (BAAA) at […], and incubated for 45 min at 37° C. To distinguish between ALDH-positive and -negative cells, a fraction of cells was incubated under identical conditions in the presence of a 2-fold molar excess of the ALDH inhibitor, diethylaminobenzaldehyde (DEAB). Mouse cells were excluded from the FACS analysis with anti-mouse MHC Class I (H-2Kd) antibody conjugated with Pacific Blue (BioLegend, 116616). 7-aminoactinomycin D (7AAD, BD) was added for dead cell exclusion. Data were acquired on a LSR II (BD) flow cytometer and analysed using the BD FACSDiva™ software.
(§1) MCF7, T47D and ZR-75-1 cell lines were purchased from American Tissue Culture Collection (ATCC) and cultured in DMEM/F-12, GlutaMAX (Gibco) with 10% FBS (Gibco). Cells were treated for 3 days or 6 days with ethanol (control), 10^-6M 4-OH-tamoxifen or 10^−7M fulvestrant and/or with 10 μM of gamma-secretase inhibitor RO4929097 (Cellagen Technology) or DMSO (control).

[2] = test system: Notch target genes HEY1 and HES1; test: HEY1 and HES1 expression in ER+ cell lines (real-time PCR, Western Blot); assay type: cell-based, human; details: for expression of HEY1 and HES1: MCF-7, T47D, ZR-75-1, 6 days, in the ALDH+ subpopulation
Experimental: as §1
Total RNA was extracted using the RNeasy Plus Mini Kit (QIAGEN, 74104) and the concentration and purity determined using an ND-1000 spectrophotometer (NanoDrop Technologies). Reverse transcription of 1 μg of RNA was performed with Oligo(dT) using the TaqMan Reverse Transcription Reagents from Applied Biosystems (N8080234). Samples were incubated on a thermal cycler (MJ Research) for 10 minutes at 25° C., 30 minutes at 48° C. and 5 minutes at 95° C. Quantitative real-time PCR reactions were set up in triplicate in 384-well plates and performed on the 7900 PCR machine (Applied Biosystems) using TaqMan® Universal PCR Master Mix (Applied Biosystems) and probes from Universal Probe Library (Roche). Conditions used for amplification of cDNA fragments were as follows: 95° C. for 5 min, 40 cycles of amplification-95 C for 15 sec, 60 C for 1 min. The expression levels were calculated using the ΔΔCt method and normalised to the housekeeping genes 36B4 and GAPDH. The sequences of the primers and probes used can be found in the table below.
(§2) Proteins were extracted with Protein Lysis Buffer (25 mM HEPES, 50 mM NaCl, 30 mM NaPP, 50 mM NaF, 1% Triton-X-100, 10% Glycerol, 5 mM EDTA, Protease Inhibitor cocktail, 1 μM PMSF). Lysates were placed on a rotator for 1 hour at 4° C., then were centrifuged at 10000 g at 4° C. for 10 min, and supernatants were collected. Protein concentrations were assessed using the BCA Protein Assay Kit (Thermo Scientific, 23225). Proteins were separated on a 10% gel (Biorad, 456-1033) by SDS-PAGE at 200V for 1 hour, and then were transferred on polyvinylidene difluoride (PVDF) membranes (BioRad, 170-4157) at 25 V/1,300 mA for 15 min using a Trans Blot Turbo (BioRad, 170-4155). […]

[3] = test system: Notch target genes HEY1 and HES1; test: HEY1 and HES1 expression by real-time PCR in PDX tumors treated in vivo; set-up: species or system mice; details: PDX tumors treated in vivo 2 weeks
Experimental: Tamoxifen citrate (Sigma, T9262, 10 mg/kg/day) and RO4929097 (Cellagen Technology, 3 mg/kg/day) were administered by oral gavage (0.1 ml/dose) on a five day from seven basis (weekends excluded) for fourteen days. Tamoxifen citrate and RO4929097 were prepared in 1% carboxymethylcellulose (Sigma, C9481) dissolved in distilled water. Fulvestrant (kindly provided by Astrazeneca, 200 mg/kg/week) was administered by subcutaneous injection (0.1 ml/dose) on a weekly basis for fourteen days. The HBC×22 and HBC×34 tamoxifen-resistant PDXs have been established by our collaborators in the Curie Institute (Cottu el al, 2014) and were treated for fourteen days in the presence or absence of the gamma-secretase inhibitor RO4929097 (10 mg/kg/day, oral gavage). […]
Total RNA was extracted using the RNeasy Plus Mini Kit (QIAGEN, 74104) and the concentration and purity determined using an ND-1000 spectrophotometer (NanoDrop Technologies). […] Quantitative real-time PCR reactions were set up in triplicate in 384-well plates and performed on the 7900 PCR machine (Applied Biosystems) using TaqMan® Universal PCR Master Mix (Applied Biosystems) and probes from Universal Probe Library (Roche). […] The expression levels were calculated using the ΔΔCt method and normalised to the housekeeping genes 36B4 and GAPDH. […]

NOTCH4-ICD and JAG1 [4] = test: NOTCH4-ICD and JAG1 Western Blot in PDX treated in vivo; set-up: species or system mice; details: 14 day window treatment of PDXs in vivo
Experimental: Tamoxifen citrate (Sigma, T9262, 10 mg/kg/day) and RO4929097 (Cellagen Technology, 3 mg/kg/day) were administered by oral gavage (0.1 ml/dose) on a five day from seven basis (weekends excluded) for fourteen days. Tamoxifen citrate and RO4929097 were prepared in 1% carboxymethylcellulose (Sigma, C9481) dissolved in distilled water. Fulvestrant (kindly provided by Astrazeneca, 200 mg/kg/week) was administered by subcutaneous injection (0.1 ml/dose) on a weekly basis for fourteen days. The HBC×22 and HBC×34 tamoxifen-resistant PDXs have been established by our collaborators in the Curie Institute (Cottu el al, 2014) and were treated for fourteen days in the presence or absence of the gamma-secretase inhibitor RO4929097 (10 mg/kg/day, oral gavage). Xenografts were collected in ice cold DMEM media for live cell assays, histological analysis and RNA and protein extraction. Patient-derived xenograft single cell suspension was obtained using a collagenase-hyaluronidase mixture for digestion (Stem Cell Technologies).
Proteins were extracted with Protein Lysis Buffer (25 mM HEPES, 50 mM NaCl, 30 mM NaPP, 50 mM NaF, 1% Triton-X-100, 10% Glycerol, 5 mM EDTA, Protease Inhibitor cocktail, 1 μM PMSF). […] Protein concentrations were assessed using the BCA Protein Assay Kit (Thermo Scientific, 23225). […]

NOTCH4-ICD and JAG1 [5] = test: NOTCH4-ICD and JAG1 Western Blot in MCF-7 cells; assay type: cell-based, human; details: short term treatment of MCF-7 cells in vitro
Experimental: as §1
as §2, with “170-4155). Membranes were blocked in a solution of PBS containing 0.05% Tween-20 and 5% skimmed milk (Marvel) for 1 h at room temperature and primary antibodies were incubated overnight at 4° C.” for “170-4155).”

SMILES	BCSC activity as assayed by MFE and ALDH-positive cells ([1]; 3 days tamoxifen or fulvestrant concomitantly with RO4929097 10 μM)	HEY1 and HES1 mRNA and protein levels ([2]; MCF-7 cells pre-treated six days with RO4929097 10 μM)	HEY1 and HES1 expression [3]	NOTCH4-ICD and JAG1 protein expression (NOTCH4-ICD and JAG1 [4])	ALDH-positive cells [1]	mammosphere-forming activity [1]	expression of HEY1 and HES1 [2]	NOTCH4-ICD and JAG1 protein expression (NOTCH4-ICD and JAG1 [5])
CC(C)(C(=O)NCC(F)(F)C(F)(F)F)C(=O)N[C@@H]1C(=O)Nc2ccccc2-c2ccccc21 [RO4929097]	reduced	decreased						
C[C@]12CC[C@@H]3c4ccc(O)cc4C[C@@H](CCCCCCCCC[S+]([O-])CCCC(F)(F)C(F)(F)F)[C@H]3[C@@H]1CC[C@@H]2O (some centres unmarked) [fulvestrant]			increased	up-regulated	enriched	enriched	preferentially increased	up-regulated
CC/C(=C(\c1ccccc1)c1ccc(OCCN(C)C)cc1)c1ccccc1 [tamoxifen, (Z)-2-[4-(1,2-diphenylbut-1-enyl)phenoxy]-N,N-dimethylethanamine]			increased	up-regulated	enriched	enriched	preferentially increased	up-regulated
